One block for each compound: values may come before it.
Key:
human TRPV1 [1] = target: T1, human TRPV1 (Homo sapiens (Human), UniProt Q8NER1); test: Capsaicin-based assay, Protocol 2 (hCAP-CHO); type: cell-based
Experimental: (§1) For Protocol 2, a Chinese Hamster Ovary cell line (CHO) that has been engineered to constitutively express human recombinant TRPV1 was used (TRPV1/CHO cells). The TRPV1/CHO cell line was generated as described below.
One day prior to assay, TRPV1/CHO cells were seeded in 96-well clear-bottom black plates (20,000 cells/well) in growth media. On the day of the experiment, the cells were washed with 0.2 mL 1× Hank's Balanced Salt Solution (Life Technologies) containing 1.6 mM CaCl2 and 20 mM HEPES, pH 7.4 (“wash buffer”). Subsequently, the cells were loaded by incubation in 0.1 mL of wash buffer containing Fluo-4 at 3 μM final concentration. After 1 hour, the cells were washed twice with 0.2 mL wash buffer and resuspended in 0.1 mL wash buffer. The plates were then transferred to a Fluorescence Imaging Plate Reader (Molecular Devices). Fluorescence intensity was monitored for 15 seconds to establish a baseline. Subsequently, test compounds diluted in assay buffer (lx Hank's Balanced Salt Solution containing 1 mM CaCl2 and 20 mM HEPES, pH 7.4) containing 1% DMSO were added to the cell plate and fluorescence was monitored for 2 minutes. […] Human TRPV1 was then activated by the addition of 50 μL capsaicin (100 nM final concentration) and plates incubated for an additional 3 min. Data were collected over the entire time course and analyzed using Excel and the curve-fitting formula GraphPad Prism.
(§2) The IC50 data provided in Table 10 are shown as mean±standard error of the mean; the number of trials conducted for each assay is shown in parentheses except for only a single trial where no number of trials is shown in parentheses.

human TRPV1 [2] = target: T1, human TRPV1; test: pH-based assay, Protocol 2 (hpH-CHO); type: cell-based; conditions: read-out: TRPV1 IC50 Potency, Human pH CHO (hpH-CHO)
Experimental: as §1
TRPV1/CHO cells were seeded in the 96-well clear-bottom black-wall plate (Nunc) at densities of 1-2×10^4 cells/well and grown in 100 μL of culture medium (alpha-MEM supplemented with 10% FBS, 20 mM HEPES, 1 mg/mL geneticin and 1% antibiotic-antimycotic mixed stock solution) for 1-2 days before the experiment.
For the first half of a 96-well plate one agonist solution was used; for the second half the other agonist solution was used. The agonist solutions were obtained by diluting sulfuric acid (1M H2SO4) with measuring buffer. The concentrations for the two agonist solutions were determined as described above in Section 2 of Protocol 2.
The sulfuric acid concentrations between the two agonist solutions differed by 0.5 mM. […] After 1:4 dilution of the agonist solutions, the final sulfuric acid concentration was 3.2 mM and 3.3 mM, respectively. The resulting pH value for the pH assay was 5.0 to 5.1.
Test compounds were dissolved in DMSO to yield 1 mM stock solutions. […] The thereby-obtained solutions were further diluted in measuring buffer (1:100) as 10× stock serial dilutions with a DMSO concentration of 1%. 10 μL of a 10× stock was added into each well of an “antagonist plate” (see step 3.3.(4) below).
Steps (1) and (2) of this Assay were the same as steps 2.2.(1) and 2.2.(2), respectively, of Protocol 2.
(3) The cells were washed twice with 150 μL of measuring buffer (mentioned in step 2.2.(3) of Protocol 2, no probenecid). The wells were subsequently refilled with 70 μL of measuring buffer.
(4) Either 10 μL of measuring buffer or 10 μL of 10× stock serial dilution of test compound (described in step 3.2. above) were applied to each well. Usually, only one test compound was tested per 96-well plate. The number of replicates per 96-well plate for a particular antagonist at a particular concentration was 2×7 since, as described for the “agonist plate,” two different sulfuric acid concentrations were used per 96-well plate and seven lanes (A-C, E-H) per 96-well plate were used (N=2×7).
(6) Fura-2 fluorescent intensity was monitored as described in step 2.2.(5) above. After 16 time points of baseline detection, 20 μL of agonist solution (measuring buffer titrated with H2SO4 to yield a pH in the range of from about 5.0 to about 5.1 when mixed 1:4 with the measuring buffer containing test compound) was added to each well (final volume 100 μL/well).
Steps (7) and (8) were as described in steps 2.2.(6) and 2.2.(7) above, respectively.
as §2

human TRPV1 [3] = target: T1, human TRPV1; test: Human TRPV1 heat-based assay (hHeat-CHO); type: cell-based; conditions: hTRPV1/CHO cells, temperature ramp 25° C. to 45° C.; mean ± SEM (number of trials); read-out: TRPV1 IC50 Potency, Human Heat CHO (hHeat-CHO)
Experimental: Human TRPV1 Heat-Based Assay:
CHO cells stably expressing human TRPV1 (hTRPV1) were used. Functional assessment of heat-induced activation of hTRPV1 was carried out in a cell-based Ca^2+ flux assay using ABI7500 Fast Real-Time PCR System as described in Reubish et al., “Functional assessment of temperature-gated ion-channel activity using a real-time PCR machine,” www.BioTechniques.com 47(3):iii-ix (2009), which is hereby incorporated by reference. Briefly, hTRPV1/CHO cells were cultured in growth media in a tissue culture dish at 37° C. in a CO2 incubator. On the day of the assay, culture media were removed and the cells were then detached using 0.05% trypsin at 37° C. with 5% CO2, for 90 s. The detached cells were centrifuged (1000 rpm, 4 min) to remove trypsin-containing supernatant and resuspended in assay buffer (115 mM NaCl, 5.4 mM KCl, 0.8 mM MgCl2.6H2O, 1.8 mM CaCl2.2H2O, 13.8 mM D-glucose, and 20 mM HEPES). Then, the cells were loaded with 5 μM Fluo-4, a Ca^2+ reporter dye, in the presence of 2.5 mM probenecid at 37° C. with 5% CO2, for 45 min. Thereafter, the cells were washed twice with measuring buffer (assay buffer supplemented with 0.1% BSA and 3.2 mM CaCl2) then transferred to a Fast 96-well Reaction Plate (0.1 mL) (Part no. 4346907, MICROAMP, Applied Biosystems, Foster City, Calif.). The cell density was 100,000 cells/24 μL/well. A solution of the compound under test (6 μL/well) was added into each well of the 96-well plate. Thus, the reaction volume per well was 30 μL.
The plates were then placed inside an ABI7500 Fast Real-Time PCR instrument (Applied Biosystems) to read fluorescence at different temperatures using 7500 software, version 2.0.2 (Applied Biosystems). The initial temperature was set at 25° C. for 1 min. followed by a temperature ramp to 45° C. in 100 s to deliver heat to cells. [Ca^2+]i response of hTRPV1/CHO cells to heat was determined as: [fluorescence read at 45° C.−fluorescence read at 25° C.].
Compound concentration response curves and IC50 values were analyzed using GraphPad Prism 4 software (GraphPad Software, La Jolla, Calif.).
as §2

[4] = In vivo assay of body temperature increase; set-up: species or system rat; conditions: rats, oral, 1 mg/mL at 10 mL/kg once; greatest ΔTb versus control at 0.5, 1 or 2 hrs after administration; rectal temperature
Text: Selection of rats (Crl/SD rats, 7 weeks, male) was based on rectal body temperature measured during the morning of the day of dosing as described below. In addition, to minimize spontaneous, stress-induced increases in body temperature, rats were acclimated in advance to both the rectal measurement procedure and to being handled and dosed. All lodging and testing took place in animal care laboratories with constant room temperature and humidity. The rats were free to move and ingest food and water throughout. Each rat was coded with a colored line on the tail, housed in a separate cage, and permitted the normal range of movement. Immediately before each body temperature measurement, a rat was transferred to a measurement cage. To reduce stress which could influence its body temperature, each rat was covered with towels during the measurement. A thermistor probe was then carefully inserted into the rectum of each rat and left in place until the temperature reading on the digital display had stabilized; this value was recorded.
On the day before dosing, rectal body temperature was measured at 9:00, 10:00, 11:00, 12:30, 13:30, 14:30, and 15:30 o'clock to familiarize the rats with the measurement procedure prior to administration of the test or control treatments. The rats were also dosed by oral gavage without vehicle at 12:30 o'clock to acclimate and familiarize them with the handling and dosing procedure.
On the day of dosing, only rats with rectal body temperatures within the range of from 37.0° C. to 37.7° C. were selected for study. Rectal body temperatures were measured at 9:00, 10:00, and 11:00 o'clock. […] Rectal body temperatures of the selected rats were measured again at 12:30 o'clock and any rat with a rectal body temperature of 38.0° C. or greater was also excluded from the study.
Following assignment to either a test or control group, a test compound or a control was administered to the rats. […] Rectal body temperatures were measured at the following time points: 0.5, 1, and 2 hrs after administration. […]

[5] = prepared and evaluated according to the methods described in WO2005/030766
[6] = TRPV1/CHO cells, 100 nM capsaicin, mean ± SEM (number of trials), read-out: TRPV1 IC50 Potency, Human Capsaicin CHO (hCAP-CHO)
[7] = TRPV1/CHO cells, pH 5.0-5.1, mean ± SEM (number of trials)

T1 sequence (Q8NER1 whole entry, looked up): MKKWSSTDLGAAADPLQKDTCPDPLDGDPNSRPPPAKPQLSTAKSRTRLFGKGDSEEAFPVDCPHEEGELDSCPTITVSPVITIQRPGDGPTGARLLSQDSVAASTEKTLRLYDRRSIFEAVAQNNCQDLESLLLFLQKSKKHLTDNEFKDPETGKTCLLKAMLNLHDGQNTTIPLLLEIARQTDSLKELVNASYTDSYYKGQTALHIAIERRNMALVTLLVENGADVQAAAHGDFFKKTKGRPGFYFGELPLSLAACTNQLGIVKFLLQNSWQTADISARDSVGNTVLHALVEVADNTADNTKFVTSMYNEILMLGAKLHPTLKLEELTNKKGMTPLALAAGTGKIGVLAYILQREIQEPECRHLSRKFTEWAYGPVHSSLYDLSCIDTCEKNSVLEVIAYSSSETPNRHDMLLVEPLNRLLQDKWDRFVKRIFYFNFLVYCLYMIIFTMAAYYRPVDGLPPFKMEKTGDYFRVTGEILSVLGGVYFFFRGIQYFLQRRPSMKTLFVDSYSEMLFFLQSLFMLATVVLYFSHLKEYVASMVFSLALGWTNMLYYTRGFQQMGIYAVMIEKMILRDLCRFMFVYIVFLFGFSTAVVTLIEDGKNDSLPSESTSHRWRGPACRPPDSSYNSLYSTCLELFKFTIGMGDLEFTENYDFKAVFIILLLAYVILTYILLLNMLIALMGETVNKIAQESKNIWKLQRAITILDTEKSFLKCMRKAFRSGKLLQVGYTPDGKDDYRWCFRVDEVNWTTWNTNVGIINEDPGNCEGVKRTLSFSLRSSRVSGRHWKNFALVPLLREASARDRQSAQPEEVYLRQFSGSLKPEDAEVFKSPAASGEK

Compound: Cc1cccnc1-c1ccc(C(=O)Nc2nc3ccc(Cl)cc3s2)cc1 [A, reference compound]
IC50 (human TRPV1 [1]): > 25 µM
IC50 (human TRPV1 [2]; [5]): > 25 µM

Compound: O=C(Nc1nc2ccc(Cl)cc2s1)c1ccc(-c2ncc(C[C@@H](O)CO)cc2F)cc1 [Compound G156a, (R)—N-(6-chlorobenzo[d]thiazol-2-yl)-4-[5-(2,3-dihydroxypropyl)-3-fluoropyridin-2-yl]benzamide]
IC50 (human TRPV1 [1]; [6]): 0.0287 ± 0.0068 µM
IC50 (human TRPV1 [2]; [7]): 0.0188 ± 0.0018 µM
IC50 (human TRPV1 [3]): > 10 µM

Compound: C[C@H](O)[C@@H](O)c1cnc(N2CCN(C(=O)Nc3nc4ccc(F)cc4s3)[C@H](C)C2)c(Cl)c1 [BA]
Body Temperature Increase ΔTb [4]: 0.9 °C

Compound: C[C@H](O)[C@@H](O)c1cnc(N2CCN(C(=O)Nc3nc4ccc(F)cc4s3)[C@H](C)C2)c(F)c1 [BC]
Body Temperature Increase ΔTb [4]: 0.7 °C

Compound: C[C@H](O)[C@@H](O)c1cnc(N2CCN(C(=O)Nc3nc4ccc(F)cc4s3)[C@@H](C)C2)c(F)c1 [BB]
Body Temperature Increase ΔTb [4]: 0.5 °C

Compound: Cc1cccnc1-c1ccc(C(=O)Nc2nc3ccc(F)cc3s2)cc1 [Compound B, reference compound]
IC50 (human TRPV1 [1]): 1.14 ± 0.27 µM
IC50 (human TRPV1 [2]; [5]): > 25 µM

Compound: Cc1cc2nc(NC(=O)c3ccc(-c4ncc(C[C@@H](O)CO)cc4F)cc3)sc2cc1C [Compound G215a, (R)-4-[5-(2,3-dihydroxypropyl)-3-fluoropyridin-2-yl]-N-(5,6-dimethylbenzo[d]thiazol-2-yl)benzamide]
IC50 (human TRPV1 [1]; [6]): 0.219 ± 0.058 µM
IC50 (human TRPV1 [2]; [7]): 0.105 ± 0.014 µM

Compound: Cc1ccc2nc(NC(=O)c3ccc(-c4ncc(C[C@@H](O)CO)cc4F)cc3)sc2c1 [Compound G159a, (R)-4-[5-(2,3-dihydroxypropyl)-3-fluoropyridin-2-yl]-N-(6-methylbenzo[d]thiazol-2-yl)benzamide]
IC50 (human TRPV1 [1]; [6]): 0.0296 ± 0.0079 µM
IC50 (human TRPV1 [2]; [7]): 0.0137 ± 0.0002 µM
IC50 (human TRPV1 [3]): 0.879 ± 0.013 µM

The next lines start with the values.

IC50 (human TRPV1 [1]; [6]): 0.117 ± 0.0096 µM
IC50 (human TRPV1 [2]; [7]): 0.045 ± 0.0033 µM
IC50 (human TRPV1 [3]): 0.58 µM
Compound: O=C(Nc1nc2ccccc2s1)c1ccc(-c2ncc(C[C@H](O)CO)cc2F)cc1 [Compound G155b, (S)—N-(benzo[d]thiazol-2-yl)-4-[5-(2,3-dihydroxypropyl)-3-fluoropyridin-2-yl]benzamide]

IC50 (human TRPV1 [1]; [6]): 0.0319 ± 0.0076 µM
IC50 (human TRPV1 [2]; [7]): 0.0443 ± 0.0062 µM
IC50 (human TRPV1 [3]): 0.307 ± 0.01 µM
Compound: O=C(Nc1nc2ccccc2s1)c1ccc(-c2ncc(C[C@@H](O)CO)cc2F)cc1 [Compound G155a, (R)—N-(benzo[d]thiazol-2-yl)-4-[5-(2,3-dihydroxypropyl)-3-fluoropyridin-2-yl]benzamide]

IC50 (human TRPV1 [1]; [6]): 0.077 ± 0.029 µM
IC50 (human TRPV1 [2]; [7]): 0.0231 ± 0.0031 µM
IC50 (human TRPV1 [3]): 0.598 ± 0.296 µM
Compound: O=C(Nc1nc2ccc(F)cc2s1)c1ccc(-c2ncc(C[C@@H](O)CO)cc2F)cc1 [Compound G158a, (R)-4-[5-(2,3-dihydroxypropyl)-3-fluoropyridin-2-yl]-N-(6-fluorobenzo[d]thiazol-2-yl)benzamide]

From patent publication US9394293B2, “TRPV1 antagonists including dihydroxy substituent and uses thereof” (Purdue Pharma L.P., priority 2011, dated 2016)
